From PubChem BioAssay (NCI)
Several values for one entry are separate records, joined by “and”; a condition that tells them apart may be missing. Equal values may be shown once.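 Growth conditions: 96-well plates. Treatment: test compound, 48 hours, 5 concentrations. Analysis: linear interpolation between bracketing concentrations; unreached endpoints set to highest concentration. The concentration for 50% growth inhibition is given as GI50. TGI denotes the concentration required for complete inhibition of growth.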

Assays:
Assay in all cases: growth of human tumour cells (NCI), 48 h
[1] = test system: LOX IMVI melanoma
[2] = test system: NCI-H226 lung
[3] = test system: BT-549 breast
[4] = test system: A549 NSCLC
[5] = test system: KM12 colon
[6] = test system: EKVX NSCLC
[7] = test system: UO-31 renal
[8] = test system: UACC-257 melanoma
[9] = test system: TK-10 renal
[10] = test system: HOP-62 NSCLC

| Compound | GI50 [1] | TGI [1] | GI50 [2] | TGI [2] | GI50 [3] | TGI [3] | GI50 [4] | TGI [4] | GI50 [5] | TGI [5] | GI50 [6] | TGI [6] | GI50 [7] | TGI [7] | GI50 [8] | TGI [8] | GI50 [9] | TGI [9] | GI50 [10] | TGI [10] |
| --- | --- | --- | --- | --- | --- | --- | --- | --- | --- | --- | --- | --- | --- | --- | --- | --- | --- | --- | --- | --- |
| O=C1NC(N/N=C\C(O)C(O)C(O)C(O)CO)=N/C1=C/c1ccccc1 (stereo not given) | > 100 µM and 17.7 µM | > 100 µM and 36.4 µM | > 100 µM and 19.5 µM | > 100 µM and 40.8 µM | 80.6 µM and 16.3 µM and > 100 µM | > 100 µM and 38.7 µM | > 100 µM and 19 µM | > 100 µM and 45.7 µM | 41.6 µM and 16.2 µM and > 100 µM | > 100 µM and 36.7 µM | > 100 µM and 19.9 µM | > 100 µM and 51 µM | > 100 µM and 17.3 µM | > 100 µM and 32.2 µM | > 100 µM and 19.9 µM | > 100 µM and 45 µM | > 100 µM and 19 µM | > 100 µM and 48.3 µM | > 100 µM and 19.4 µM | > 100 µM and 36.2 µM |
| C=C1C(=O)O[C@H]2[C@H]1CC/C(COC(=O)CCCCCC(=O)OC/C1=C/CC[C@@]3(C)O[C@H]3[C@H]3OC(=O)C(=C)[C@@H]3CC1)=C\CC[C@@]1(C)O[C@@H]21 | 1.47 µM | 2.88 µM | 2.02 µM | 5.53 µM | 1.44 µM | 3.02 µM | 10.4 µM | 23.8 µM | 2.17 µM | 5.4 µM | 2.84 µM | 11.5 µM | 1.25 µM | 2.86 µM | 1.93 µM | 5.63 µM | 2.58 µM | 5.7 µM | 2.34 µM | 6.46 µM |
| CCCCCCCCCCCC1=NC(C)(C)CN1C(C)(C)CO | 1.91 µM | 3.79 µM | 5.16 µM | 20.5 µM | 9.89 µM | 22 µM | 6.53 µM | 19.6 µM | 1.72 µM | 3.14 µM | 2.77 µM | 16.9 µM | 2.03 µM | 8.42 µM | 1.65 µM | 3.28 µM | 1.94 µM | 3.61 µM | 2.72 µM | 9.53 µM |
| Cc1cn2c(/C=C3/C(=O)Nc4c3ccc3ccccc43)c(C(F)(F)F)nc2s1 | 1.07 µM | 21.1 µM | 17.9 µM | > 100 µM | 1.18 µM | > 100 µM | 1.18 µM | > 100 µM | 0.493 µM | 38.5 µM | 4.23 µM | > 100 µM | 1.97 µM | > 100 µM | > 100 µM | > 100 µM | 12.6 µM | > 100 µM | 0.586 µM | 93.1 µM |
| O=c1c2c([nH]c3nccn13)CCC2 | – | > 10 µM | – | > 10 µM | – | > 10 µM | – | > 10 µM | – | > 10 µM | – | > 10 µM | – | > 10 µM | – | > 10 µM | – | > 10 µM | – | > 10 µM |
